The subject of assay [1] is Capan-1 cells (K-Ras G12V). Put plainly: CellTiter-Glo cell viability, Capan-1. The settings on record: Homo sapiens, CAPAN-1, 120 h, read-out: Capan-1 Cell Viability IC50. In kind it is cell-based, human. The method in brief:
(§1)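 Viability is read as luminescence after five days of compound exposure, with plates first equilibrated to room temperature for roughly 30 minutes. Each signal is expressed as a percentage of the mean DMSO control, and curves are fitted by four-parameter logistic regression.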
In general terms: ATP-based viability assays read luminescence as a measure of living cells.

Assay [2] deals with NCI-H358 cells (K-Ras G12C). Put plainly: CellTiter-Glo cell viability, NCI-H358. In kind it is cell-based, human. As to conditions: Homo sapiens, NCI-H358, 120 h, K-Ras G12C, 5-day treatment; read-out: H358 Cell Viability IC50. The method in brief:
as §1

In assay [3] the target is KRAS G12C (Homo sapiens (Human), UniProt P01116+P62937, G12C). Nature of the assay: Ras-Raf disruption/FRET/MOA assay (BRAF RBD, Cyclophilin A). The class given is biochemical. As to conditions: read-out: KRAS G12C FRET IC50. The procedure, abridged: (§2)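 Measured: compound-facilitated Cyclophilin A:Ras complex blocking RAF RBD binding. Conditions: 12.5 nM Ras-GMPPNP, 50 nM BRAF RBD, 25 μM CypA, 3 h plus 1.5 h detection. Output: IC50 from TR-FRET ratio.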

In assay [4] the target is KRAS G12D (Homo sapiens (Human), UniProt P01116+P62937, G12D). The assay is described as above. The settings on record: read-out: KRAS G12D FRET IC50. In kind it is biochemical. The method in brief:
as §2

For assay [5], the target named is NRAS Q61R (Homo sapiens (Human), UniProt P01111+P62937, Q61R). The assay is described as above. The class given is biochemical. The procedure, abridged: (§3)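 Ras-GMPPNP (12.5 nM), BRAF RBD (50 nM) and 25 μM Cyclophilin A were incubated with compound for 3 h at 25° C, then detected 1.5 h with anti-His Eu and anti-GST APC; IC50 values follow from the reduced TR-FRET ratio.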

The target of assay [6] is KRAS G12V (Homo sapiens (Human), UniProt P01116+P62937, G12V). The assay is described as above. In kind it is biochemical. The settings on record: read-out: KRAS G12V FRET IC50. The procedure, abridged: as §2
The target of assay [7] is KRAS Q61H (Homo sapiens (Human), UniProt P01116+P62937, Q61H). The description is as above. The class given is biochemical. The method in brief: as §2
The target in assay [8] is KRAS G13C (Homo sapiens (Human), UniProt P01116+P62937, G13C). The description is as above. The settings on record: read-out: KRAS G13C FRET IC50. In kind it is biochemical. The procedure, abridged:
as §2

Assay [9] deals with NRAS WT (Homo sapiens (Human), UniProt P01111+P62937). The assay is described as above. In kind it is biochemical. The method in brief: as §3
The target of assay [10] is KRAS WT (Homo sapiens (Human), UniProt P01116+P62937). Described as above. In kind it is biochemical. As to conditions: read-out: KRAS WT FRET data IC50. The procedure, abridged: as §2
For assay [11], the target named is KRAS G12S (Homo sapiens (Human), UniProt P01116+P62937, G12S). The assay is described as above. As to conditions: read-out: KRAS G12S FRET IC50. The class given is biochemical. The procedure, abridged: as §2
The target in assay [12] is NRAS G12C (Homo sapiens (Human), UniProt P01111+P62937, G12C). Described as above. The class given is biochemical. The settings on record: read-out: NRAS G12C FRET data IC50. The method in brief: as §3
For assay [13], the target named is KRAS G13D (Homo sapiens (Human), UniProt P01116+P62937, G13D). The description is as above. The class given is biochemical. The settings on record: read-out: KRAS G13D FRET data IC50. The method in brief: as §2
The test system of assay [14] is K-Ras G12C (NCI-H358 cells). Put plainly: Potency assay: pERK in NCI-H358 cells. As to conditions: Homo sapiens, read-out: pERK EC50 (H358 KRAS G12C). The class given is cell-based, human. The method in brief:
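Cells plated the day before were exposed for 4 h at 37° C, 5% CO2 to a 10-point, 3-fold DMSO dilution series (10 mM top stock), in duplicate. Phospho-ERK was read by AlphaLISA SureFire Ultra or by In-Cell Western with DRAQ5 DNA stain, and IC50 came from a 4-parameter sigmoidal fit.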

Read-outs that look alike come from different tables or passages of the source.

Sequence of KRAS G13C (P01116 other isoform, or with tags, fused parts or gaps G13C): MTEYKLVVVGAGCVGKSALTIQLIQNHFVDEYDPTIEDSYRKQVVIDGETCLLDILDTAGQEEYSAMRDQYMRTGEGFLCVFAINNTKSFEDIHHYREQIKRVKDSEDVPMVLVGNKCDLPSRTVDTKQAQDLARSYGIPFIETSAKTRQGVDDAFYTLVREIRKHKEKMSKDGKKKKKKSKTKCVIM
Sequence of KRAS G13C (P62937 whole entry): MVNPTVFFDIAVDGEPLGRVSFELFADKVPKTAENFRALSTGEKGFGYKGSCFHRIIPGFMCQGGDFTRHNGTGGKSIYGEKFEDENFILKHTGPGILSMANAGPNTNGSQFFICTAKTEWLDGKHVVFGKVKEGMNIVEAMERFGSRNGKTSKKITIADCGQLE
Sequence of KRAS G12D (P01116 other isoform, or with tags, fused parts or gaps G12D): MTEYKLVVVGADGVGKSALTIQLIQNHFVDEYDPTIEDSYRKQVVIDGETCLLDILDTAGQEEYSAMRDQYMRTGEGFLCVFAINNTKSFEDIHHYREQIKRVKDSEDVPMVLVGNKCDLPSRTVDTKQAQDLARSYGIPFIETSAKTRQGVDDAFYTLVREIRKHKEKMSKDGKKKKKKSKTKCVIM
Sequence of KRAS G12D (P62937 whole entry): as the sequence (P62937 whole entry) above
Sequence of KRAS G12S (P01116 other isoform, or with tags, fused parts or gaps G12S): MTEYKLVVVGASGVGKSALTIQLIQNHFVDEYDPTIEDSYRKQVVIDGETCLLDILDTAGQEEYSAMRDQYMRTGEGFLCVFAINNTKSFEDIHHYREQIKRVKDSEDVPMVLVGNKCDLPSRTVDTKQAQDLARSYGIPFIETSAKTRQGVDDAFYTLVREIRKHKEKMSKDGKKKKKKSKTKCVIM
Sequence of KRAS G12S (P62937 whole entry): as the sequence (P62937 whole entry) above
Sequence of KRAS G12C (P01116-2 other isoform, or with tags, fused parts or gaps G12C): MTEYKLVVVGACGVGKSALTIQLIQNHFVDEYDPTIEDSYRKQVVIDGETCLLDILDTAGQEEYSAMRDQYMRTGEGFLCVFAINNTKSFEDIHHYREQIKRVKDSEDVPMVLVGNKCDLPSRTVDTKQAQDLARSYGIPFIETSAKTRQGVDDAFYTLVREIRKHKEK
Sequence of KRAS G12C (P62937 whole entry): as the sequence (P62937 whole entry) above
Sequence of NRAS Q61R (P01111 whole entry Q61R): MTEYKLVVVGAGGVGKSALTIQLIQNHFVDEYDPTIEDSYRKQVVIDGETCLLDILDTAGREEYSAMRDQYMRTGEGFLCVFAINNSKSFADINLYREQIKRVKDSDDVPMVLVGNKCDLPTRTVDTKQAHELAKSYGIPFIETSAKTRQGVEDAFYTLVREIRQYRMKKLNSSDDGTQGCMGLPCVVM
Sequence of NRAS Q61R (P62937 whole entry): as the sequence (P62937 whole entry) above
Sequence of NRAS G12C (P01111 whole entry G12C): as the sequence (P01111 whole entry Q61R) above, with G12C, R61Q counted along it
Sequence of NRAS G12C (P62937 whole entry): as the sequence (P62937 whole entry) above
Sequence of KRAS WT (P01116 other isoform, or with tags, fused parts or gaps): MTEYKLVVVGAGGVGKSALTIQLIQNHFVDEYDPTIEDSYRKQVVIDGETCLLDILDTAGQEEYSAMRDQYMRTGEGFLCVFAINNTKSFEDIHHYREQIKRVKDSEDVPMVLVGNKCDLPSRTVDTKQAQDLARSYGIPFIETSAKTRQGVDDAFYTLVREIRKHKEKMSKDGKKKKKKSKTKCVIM
Sequence of KRAS WT (P62937 whole entry): as the sequence (P62937 whole entry) above
Sequence of KRAS G12V (P01116 other isoform, or with tags, fused parts or gaps G12V): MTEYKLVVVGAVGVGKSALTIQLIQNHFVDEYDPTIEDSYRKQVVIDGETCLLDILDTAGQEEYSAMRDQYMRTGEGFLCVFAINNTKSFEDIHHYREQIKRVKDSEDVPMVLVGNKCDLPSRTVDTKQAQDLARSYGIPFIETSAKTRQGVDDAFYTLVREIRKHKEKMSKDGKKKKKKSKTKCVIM
Sequence of KRAS G12V (P62937 whole entry): as the sequence (P62937 whole entry) above
Sequence of KRAS G13D (P01116 other isoform, or with tags, fused parts or gaps G13D): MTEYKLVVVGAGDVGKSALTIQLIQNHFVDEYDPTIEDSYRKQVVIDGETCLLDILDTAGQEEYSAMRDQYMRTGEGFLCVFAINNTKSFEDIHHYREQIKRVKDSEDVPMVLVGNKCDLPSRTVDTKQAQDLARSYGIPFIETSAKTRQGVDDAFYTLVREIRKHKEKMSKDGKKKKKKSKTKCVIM
Sequence of KRAS G13D (P62937 whole entry): as the sequence (P62937 whole entry) above
Sequence of NRAS WT (P01111 whole entry): as the sequence (P01111 whole entry Q61R) above, with R61Q counted along it
Sequence of NRAS WT (P62937 whole entry): as the sequence (P62937 whole entry) above
Sequence of KRAS Q61H (P01116 other isoform, or with tags, fused parts or gaps Q61H): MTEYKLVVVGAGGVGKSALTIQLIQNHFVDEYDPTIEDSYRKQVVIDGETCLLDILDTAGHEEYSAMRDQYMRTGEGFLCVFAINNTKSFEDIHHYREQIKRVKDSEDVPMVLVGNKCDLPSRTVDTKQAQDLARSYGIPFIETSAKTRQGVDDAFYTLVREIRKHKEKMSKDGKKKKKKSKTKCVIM
Sequence of KRAS Q61H (P62937 whole entry): as the sequence (P62937 whole entry) above

Consider `CCn1c(-c2cccnc2[C@H](C)OC)c2c3cc(ccc31)-c1csc(n1)C[C@H](NC(=O)[C@H](C(C)C)N(C)C(=O)N1CC3(CC(N(C)C(C)C)C3)C1)C(=O)N1CCC[C@H](N1)C(=O)OCC(C)(C)C2` [Compound A485], for which the IC50 in assay [1] (K-Ras G12V, 5-day treatment) fell in the range of 10 to 100 nM; in assay [2] it was 10 to 100 nM; in assay [3], 100 to 1000 nM; in [4], 100 to 1000 nM; in [5] it was 100 to 1000 nM; in assay [6], 100 to 1000 nM. Besides, the half-inhibitory concentration (IC50) in [7] lay in the range of 10 to 100 nM; in assay [8], 100 to 1000 nM; in assay [9], 100 to 1000 nM; in assay [10] it was 100 to 1000 nM; in [11], 100 to 1000 nM; in assay [12], 100 to 1000 nM. For the same compound, the IC50 in [13] was in the range of 100 to 1000 nM.
In the case of `CCn1c(-c2cccnc2[C@H](C)OC)c2c3cc(ccc31)-c1csc(n1)C[C@H](NC(=O)[C@H](C(C)C)N(C)C(=O)N1CC([C@@H](CO)OC)C1)C(=O)N1CCC[C@H](N1)C(=O)OCC(C)(C)C2` [Compound A514], the IC50 in assay [1] (K-Ras G12V, 5-day treatment) fell in the range of 10 to 100 nM; in [3], 10 to 100 nM; in assay [4], 100 to 1000 nM; in assay [5], 100 to 1000 nM; in assay [6], 100 to 1000 nM; in assay [7], 10 to 100 nM. Further, the IC50 in assay [8] lay within 100 to 1000 nM; in assay [9], 100 to 1000 nM; in [10] it was 100 to 1000 nM; in assay [11] it was 100 to 1000 nM; in assay [12] it was 10 to 100 nM; in assay [13] it was 100 to 1000 nM.
In the case of `CCn1c(-c2cccnc2[C@H](C)OC)c2c3cc(ccc31)-c1csc(n1)C[C@H](NC(=O)[C@H](C(C)C)N(C)C(=O)N1CC([C@H](CO)OC)C1)C(=O)N1CCC[C@H](N1)C(=O)OCC(C)(C)C2` [Compound A515], the IC50 in assay [1] (K-Ras G12V, 5-day treatment) fell in the range of 10 to 100 nM; in [3], 10 to 100 nM; in [4], 100 to 1000 nM; in assay [5], 100 to 1000 nM; in assay [6], 100 to 1000 nM; in assay [7] it was 10 to 100 nM. In addition, the half-maximal inhibitory concentration (IC50) in [8] was 100 to 1000 nM; in [9], 100 to 1000 nM; in [10] it was 100 to 1000 nM; in assay [11], 100 to 1000 nM; in [12], 10 to 100 nM; in [13], 100 to 1000 nM. Further, the EC50 in assay [14] (NCI-H358 cells, 4 hours) is less than 5000 nM.
Consider `CCn1c(-c2cccnc2[C@H](C)OC)c2c3cc(ccc31)-c1csc(n1)C[C@H](NC(=O)[C@H](C(C)C)N(C)C(=O)N1CC(C(=O)N3CCOCC3)C1)C(=O)N1CCC[C@H](N1)C(=O)OCC(C)(C)C2` [Compound A543], for which the 50% inhibitory concentration (IC50) in [1] (K-Ras G12V, 5-day treatment) lay within 10 to 100 nM; in assay [3], 10 to 100 nM; in assay [4], 100 to 1000 nM; in assay [5], 100 to 1000 nM; in [6], 100 to 1000 nM; in assay [7], 10 to 100 nM. Further, the IC50 in assay [8] is 100 to 1000 nM; in assay [9], 100 to 1000 nM; in assay [10] it was 100 to 1000 nM; in assay [11] it was 100 to 1000 nM; in assay [12], 10 to 100 nM; in assay [13], 100 to 1000 nM.
On to `CCn1c(-c2cccnc2[C@H](C)OC)c2c3cc(ccc31)-c1csc(n1)C[C@H](NC(=O)[C@H](C(C)C)N(C)C(=O)N1CC(S(=O)(=O)N(C)C)C1)C(=O)N1CCC[C@H](N1)C(=O)OCC(C)(C)C2` [Compound A551], for which the half-inhibitory concentration (IC50) in assay [1] lay in the range of 10 to 100 nM; in assay [3] it was 10 to 100 nM; in [4] it was 100 to 1000 nM; in assay [5], 100 to 1000 nM; in assay [6] it was 100 to 1000 nM; in assay [7], 10 to 100 nM. Further, the IC50 lay within 100 to 1000 nM in [8]; 100 to 1000 nM in [9]; 100 to 1000 nM in [10]; 100 to 1000 nM in [11]; 10 to 100 nM in assay [12]; 100 to 1000 nM in assay [13]. Further, in assay [14] (NCI-H358, 4 h), the half-maximal effective concentration (EC50) is less than 5000 nM.

In general, IC50 refers to the point on the concentration scale where inhibition reaches its midpoint. Usually EC50 stands for the midpoint of the concentration-response curve.

For the origin of these results see patent US20250195521A1 (Revolution Medicines, Inc., priority 2020, published 2025).
